Measured values: BindingDB's records for doi:10.1016/j.bmc.2019.01.012 (University of Education, 2019)

What was measured:
Acetylcholinesterase = Acetylcholinesterase (Homo sapiens, UniProt P22303); test: Inhibition of AChE (unknown origin) using […] as substrate by Ellman method
Cholinesterase = Cholinesterase (Homo sapiens, UniProt P06276); test: Inhibition of BuChE (unknown origin) using butyrylthiocholine bromide as substrate by Ellman method
Cholinesterase, sequence (P06276 whole entry): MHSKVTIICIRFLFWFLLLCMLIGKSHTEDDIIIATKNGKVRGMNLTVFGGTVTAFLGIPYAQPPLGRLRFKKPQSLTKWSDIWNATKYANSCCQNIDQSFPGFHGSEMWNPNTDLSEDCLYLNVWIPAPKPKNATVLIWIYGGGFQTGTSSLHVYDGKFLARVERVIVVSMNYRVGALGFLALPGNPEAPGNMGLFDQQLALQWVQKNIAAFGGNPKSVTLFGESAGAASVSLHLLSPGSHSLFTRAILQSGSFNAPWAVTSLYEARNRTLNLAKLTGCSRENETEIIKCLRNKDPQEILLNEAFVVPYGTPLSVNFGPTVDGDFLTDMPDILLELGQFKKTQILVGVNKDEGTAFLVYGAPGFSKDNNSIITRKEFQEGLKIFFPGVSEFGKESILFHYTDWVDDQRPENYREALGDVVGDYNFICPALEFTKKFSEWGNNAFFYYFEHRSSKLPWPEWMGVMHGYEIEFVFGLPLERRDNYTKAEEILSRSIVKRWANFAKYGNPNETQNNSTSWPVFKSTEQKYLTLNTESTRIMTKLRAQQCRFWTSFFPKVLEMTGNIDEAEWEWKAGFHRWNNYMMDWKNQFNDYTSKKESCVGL

Acetylcholinesterase, sequence (P22303 whole entry): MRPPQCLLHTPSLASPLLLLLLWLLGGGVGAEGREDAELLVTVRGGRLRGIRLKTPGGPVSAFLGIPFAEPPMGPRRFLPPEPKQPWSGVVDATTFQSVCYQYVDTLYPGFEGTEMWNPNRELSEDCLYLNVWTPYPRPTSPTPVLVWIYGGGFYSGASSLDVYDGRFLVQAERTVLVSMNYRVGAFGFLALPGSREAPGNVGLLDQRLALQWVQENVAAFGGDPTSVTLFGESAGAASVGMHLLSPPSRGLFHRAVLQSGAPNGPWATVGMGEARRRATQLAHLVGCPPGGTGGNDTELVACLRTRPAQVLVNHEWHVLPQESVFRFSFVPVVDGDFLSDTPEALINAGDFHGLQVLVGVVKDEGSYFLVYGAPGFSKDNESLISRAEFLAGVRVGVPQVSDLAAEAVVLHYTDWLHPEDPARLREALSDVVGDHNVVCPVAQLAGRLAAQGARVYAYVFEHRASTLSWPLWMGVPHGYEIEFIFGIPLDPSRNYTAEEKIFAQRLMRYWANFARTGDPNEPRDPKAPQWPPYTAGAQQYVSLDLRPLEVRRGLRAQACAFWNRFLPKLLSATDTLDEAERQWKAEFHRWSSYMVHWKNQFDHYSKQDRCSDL

SMILES	IC50 (Acetylcholinesterase) [µM]	IC50 (Cholinesterase) [µM]
CC(C)Cc1ccc(C(C)C(=O)NS(=O)(=O)c2ccc(N)cc2)cc1 (stereo not given)	< 600	214
CC(C)Cc1ccc([C@H](C)C(=O)O)cc1 [(RS)-ibuprofen]	235	< 600
Nc1ccc(S(N)(=O)=O)cc1 [aromatic sulfonamide compound 5]	–	138
